This passage reports MIC results from patent US8318940B2, “Naphthyridin-2 (1 H)-one compounds useful as antibacterials” (Glaxo Group Limited, priority 2009, dated 2012).

Molecules are shown by their SMILES. A value given as a limit tells only on which side of the number the result lay.

The experiment deals with Mycobacterium tuberculosis H37Rv. As to the kind of experiment: Mycobacterium tuberculosis H37Rv inhibition assay (MIC, resazurin). The conditions noted are these: ATCC 25618 / H37Rv, H37Rv strain (ATCC25618), Middlebrook 7H9, 37° C. six days, resazurin fluorescence after 48 hours. The experiment is classed as cell-based.
For the compound `O=c1ccc2ncc(F)cc2n1CCN1CCC(NCc2cnc(CO)c(Cl)c2)CC1` [Example 1, 1-{2-[4-({[5-chloro-6-(hydroxymethyl)-3-pyridinyl]methyl}amino)-1-piperidinyl]ethyl}-7-fluoro-1,5-naphthyridin-2(1H)-one], the MIC was at most 0.3 µg/mL.

As for `Cl.O=c1ccc2ncc(F)cc2n1CCN1CCC(NCc2cnc(CO)c(Cl)c2)CC1` [Example 2, 1-{2-[4-({[5-chloro-6-(hydroxymethyl)-3-pyridinyl]methyl}amino)-1-piperidinyl]ethyl}-7-fluoro-1,5-naphthyridin-2(1H)-one hydrochloride], the MIC was at most 0.3 µg/mL.

Take `O=c1ccc2ncc(F)cc2n1CCN1CC[C@H](NCc2cnc(CO)c(Cl)c2)[C@H](O)C1` [Example 3, 1-{2-[(3R,4S)-4-({[5-chloro-6-(hydroxymethyl)-3-pyridinyl]methyl}amino)-3-hydroxy-1-piperidinyl]ethyl}-7-fluoro-1,5-naphthyridin-2(1H)-one]: the MIC is at most 0.3 µg/mL.

With `Cl.O=c1ccc2ncc(F)cc2n1CCN1CC[C@H](NCc2cnc(CO)c(Cl)c2)[C@H](O)C1` [Example 4, 1-{2-[(3R,4S)-4-({[5-chloro-6-(hydroxymethyl)-3-pyridinyl]methyl}amino)-3-hydroxy-1-piperidinyl]ethyl}-7-fluoro-1,5-naphthyridin-2(1H)-one hydrochloride], the MIC was at most 0.3 µg/mL.

`COc1cnc2ccc(=O)n(CCN3CCC(NCc4cnc(CO)c(Cl)c4)CC3)c2c1` [Example 5, 1-{2-[4-({[5-chloro-6-(hydroxymethyl)-3-pyridinyl]methyl}amino)-1-piperidinyl]ethyl}-7-(methyloxy)-1,5-naphthyridin-2(1H)-one] returned an MIC of at most 0.3 µg/mL.

Consider `O=c1ccc2ncc(F)cc2n1CCN1CCC(NCc2cnc(CO)c(Br)c2)CC1` [Example 6, 1-{2-[4-({[5-bromo-6-(hydroxymethyl)-3-pyridinyl]methyl}amino)-1-piperidinyl]ethyl}-7-fluoro-1,5-naphthyridin-2(1H)-one], for which the MIC is at most 0.3 µg/mL.

For orientation: MIC means the lowest concentration found to suppress growth.
